Reference: publication PMC10712727, “Safety, Tolerability, and Pharmacokinetics of Senaparib, a Novel PARP1/2 Inhibitor, in Chinese Patients With Advanced Solid Tumors: A Phase I Trial” (The Oncologist, 2023)

Tested on: BRCA^mut+ tumors
Assay: Tumor response per RECIST v1.1 (ORR, DCR, DOR, PFS), BRCA^mut+ subgroup
Type: in vivo, human
Settings: for Patients with reduced tumor size: BRCA^mut+ subgroup; for PFS, Median (95% CI): Kaplan-Meier
Source text: The dose-expansion period included 3 populations: dose groups in which at least one patient achieved complete response (CR) or partial response (PR) per RECIST v1.1[16] and 1 dose group higher (evaluated for safety), as well as the dose group at the maximum tolerated dose (MTD)/recommended phase II dose (RP2D). Each of these groups included those patients in the respective dose-escalation group plus a planned additional 10 patients (approximately 20 patients in the MTD/RP2D group) with BRCA^mut+ solid tumors (ovarian, breast, or prostate cancer were preferred, and ovarian cancer could be BRCA wild type). Patients received senaparib monotherapy orally QD or BID (50-mg dose only) over each 3-week cycle until disease progression or unacceptable toxicity.
Safety was assessed by recording the incidence of dose-limiting toxicities (DLTs), and the incidence, nature, severity (graded per National Cancer Institute Common Terminology Criteria for Adverse Events version 4.03 [NCI CTCAE v4.03][18]), and relatedness of treatment-emergent adverse events (TEAEs). DLTs were predefined toxicities (Supplementary Table S2) recorded over the 7 days following the single-dose administration of senaparib and during the first treatment cycle (day 1-day 21) for each dose group in the dose-escalation period only. The MTD was defined as the maximum dose at which ≤1/6 patients experienced a DLT. Senaparib PK parameters were derived from blood samples collected from patients after the single administration, and at regular intervals during the first cycle of the dose-escalation and dose-expansion periods. Plasma concentrations of senaparib were determined using high-performance liquid chromatography-tandem mass spectrometry. Tumor response was assessed every 6 weeks per RECIST v1.1,[16] recording objective response rate (ORR), disease control rate (DCR), duration of response (DOR), and progression-free survival (PFS) by dose level for all patients and for those harboring BRCA^mut+ tumors.
There was no formal sample size calculation based on statistical hypothesis testing for this study; the planned enrolment was approximately 30-60 patients across the dose-escalation and dose-expansion cohorts. The actual number in the dose-escalation cohort was adjusted based on the number of dose cohorts required for the modified Fibonacci dose-escalation design and the determined MTD. Definitions for all analysis populations (safety, DLT, PK, and efficacy [intent-to-treat, ITT]) are provided in Supplementary Table S2. No statistical tests were performed; patient demographic and baseline characteristics, safety/tolerability, PK parameters, and efficacy were evaluated descriptively. ORR and DCR and their 95% CIs were calculated for each group using the exact probability method. Kaplan-Meier statistics were used to estimate DOR and PFS, and their 95% CIs for each dose group separately. Dose linearity was explored based on the single-dose data of area under the time-concentration curve (AUC) and maximum plasma concentration (Cmax) using the power model (Y = α × dose β) for the dose range 2-80 mg on a log-transformed scale. The following criterion was used to determine whether dose proportionality was met: if the (2-sided) 90% CI for β was wholly contained within the interval (1 + log(0.5)/log(r), 1 + log(2)/log(r)), then dose proportionality was supported. Here, r was defined as the ratio of the highest to lowest dose. All data analyses were carried out using SAS EG7.1 or higher or (for PK parameters) WinNonlin 7.0 or higher.

[1] = BRCA^mut+, 26 evaluable for tumor response
[2] = BRCA^mut+, 5 mg QD, PFS evaluable n 2
[3] = BRCA^mut+, 10 mg QD, PFS evaluable n 1
[4] = BRCA^mut+, 10 mg QD, evaluable n 1
[5] = BRCA^mut+, 20 mg QD, PFS evaluable n 3
[6] = BRCA^mut+, 20 mg QD, evaluable n 2
[7] = BRCA^mut+, 60 mg QD, PFS evaluable n 4
[8] = BRCA^mut+, 60 mg QD, evaluable n 4
[9] = BRCA^mut+, 80 mg QD, DOR evaluable n 3
[10] = BRCA^mut+, 80 mg QD, PFS evaluable n 6
[11] = BRCA^mut+, 80 mg QD, evaluable n 6
[12] = BRCA^mut+, 100 mg QD, DOR evaluable n 2
[13] = BRCA^mut+, 100 mg QD, PFS evaluable n 13
[14] = BRCA^mut+, 100 mg QD, evaluable n 11
[15] = BRCA^mut+, 120 mg QD, PFS evaluable n 2
[16] = BRCA^mut+, 120 mg QD, evaluable n 2
[17] = BRCA^mut+, Total, DOR evaluable n 7
[18] = BRCA^mut+, Total, PFS evaluable n 32
[19] = BRCA^mut+, Total, evaluable n 26

Structure (SMILES): O=C(c1cc(Cn2c(=O)[nH]c(=O)c3c(F)cccc32)ccc1F)N1CCN(c2ncccn2)CC1 [Senaparib]
- Median DOR (BRCA^mut+ patients, 95% CI, 39-NR): 169 days
- Median PFS (BRCA^mut+ patients, 95% CI, 79-464): 215 days
- Patients with reduced tumor size (non-ovarian (3/10)): 30.0%
- Patients with reduced tumor size (ovarian cancer (10/16)): 62.5%
- DCR [1]: 73.1%
- ORR [1]: 26.9%
- DOR: Events (BRCA^mut+, 2 mg QD, DOR evaluable n 0): 0 n (%)
- PFS: Events (BRCA^mut+, 2 mg QD, PFS evaluable n 0): 0 (0) n (%)
- DOR: Events (BRCA^mut+, 5 mg QD, DOR evaluable n 0): 0 n (%)
- PFS: Events [2]: 2 (100) n (%)
- PFS, Median (95% CI) [2]: 254.5 (45-464) days
- DOR: Events (BRCA^mut+, 10 mg QD, DOR evaluable n 0): 0 n (%)
- PFS: Events [3]: 1 (100) n (%)
- PFS, Median (95% CI) [3]: 49 (49-49) days
- Complete response [4]: 0 n (%)
- DCR (complete response+partial response+stable disease) [4]: 0 n (%)
- ORR (complete response+partial response) [4]: 0 (0) n (%)
- Partial response [4]: 0 n (%)
- Stable disease (≥42 days from cycle 1 day 1) [4]: 0 n (%)
- DOR: Events (BRCA^mut+, 20 mg QD, DOR evaluable n 1): 0 n (%)
- PFS: Events [5]: 1 (33.3) n (%)
- PFS, Median (95% CI) [5]: – (39-NR)
- Complete response [6]: 0 n (%)
- DCR (complete response+partial response+stable disease) [6]: 1 (50.0) n (%)
- ORR (complete response+partial response) [6]: 1 (50.0) n (%)
- Partial response [6]: 1 (50.0) n (%)
- Stable disease (≥42 days from cycle 1 day 1) [6]: 0 n (%)
- DOR: Events (BRCA^mut+, 40 mg QD, DOR evaluable n 0): 0 n (%)
- DOR: Events (BRCA^mut+, 50 mg BID, DOR evaluable n 0): 0 n (%)
- PFS: Events (BRCA^mut+, 50 mg BID, PFS evaluable n 1): 0 (0) n (%)
- DOR: Events (BRCA^mut+, 60 mg QD, DOR evaluable n 1): 0 n (%)
- PFS: Events [7]: 2 (50.0) n (%)
- PFS, Median (95% CI) [7]: 255 (127-NR) days
- Complete response [8]: 0 n (%)
- DCR (complete response+partial response+stable disease) [8]: 4 (100) n (%)
- ORR (complete response+partial response) [8]: 1 (25.0) n (%)
- Partial response [8]: 1 (25.0) n (%)
- Stable disease (≥42 days from cycle 1 day 1) [8]: 3 (75.0) n (%)
- DOR, Median (95% CI) [9]: 120 (39-169) days
- DOR: Events [9]: 3 (100) n (%)
- PFS: Events [10]: 5 (83.3) n (%)
- PFS, Median (95% CI) [10]: 167 (40-216) days
- Complete response [11]: 0 n (%)
- DCR (complete response+partial response+stable disease) [11]: 5 (83.3) n (%)
- ORR (complete response+partial response) [11]: 3 (50.0) n (%)
- Partial response [11]: 3 (50.0) n (%)
- Stable disease (≥42 days from cycle 1 day 1) [11]: 2 (33.3) n (%)
- DOR, Median (95% CI) [12]: – (169-NR)
- DOR: Events [12]: 1 (50.0) n (%)
- PFS: Events [13]: 5 (38.5) n (%)
- PFS, Median (95% CI) [13]: 289 (42-NR) days
- Complete response [14]: 0 n (%)
- DCR (complete response+partial response+stable disease) [14]: 8 (72.7) n (%)
- ORR (complete response+partial response) [14]: 2 (18.2) n (%)
- Partial response [14]: 2 (18.2) n (%)
- Stable disease (≥42 days from cycle 1 day 1) [14]: 6 (54.5) n (%)
- DOR: Events (BRCA^mut+, 120 mg QD, DOR evaluable n 0): 0 n (%)
- PFS: Events [15]: 1 (50.0) n (%)
- PFS, Median (95% CI) [15]: – (48-NR)
- Complete response [16]: 0 n (%)
- DCR (complete response+partial response+stable disease) [16]: 1 (50.0) n (%)
- ORR (complete response+partial response) [16]: 0 (0) n (%)
- Partial response [16]: 0 n (%)
- Stable disease (≥42 days from cycle 1 day 1) [16]: 1 (50.0) n (%)
- DOR, Median (95% CI) [17]: 169 (39-NR) days
- DOR: Events [17]: 4 (57.1) n (%)
- PFS: Events [18]: 17 (53.1) n (%)
- PFS, Median (95% CI) [18]: 215 (79-464) days
- Complete response [19]: 0 n (%)
- DCR (complete response+partial response+stable disease) [19]: 19 (73.1) n (%)
- ORR (complete response+partial response) [19]: 7 (26.9) n (%)
- Partial response [19]: 7 (26.9) n (%)
- Stable disease (≥42 days from cycle 1 day 1) [19]: 12 (46.2) n (%)
